Results on 5 substances are retold here after patent US11602578B2, “Crosslinkable polypeptide and hyaluronic acid coatings” (Université de Strasbourg, priority 2017, dated 2023).

Assay [1] has as its system S. aureus. The assay is described as follows: PAR in solution: S. aureus growth and minimal inhibitory concentration in MHB medium. The assay is classed as cell-based, Staphylococcus aureus. The note with it: for inhibition of bacterial growth by PAR in solution (in words): at 1 μM; for inhibition of S. aureus growth by PAR in solution (in words): concentrations up to 0.04 mg·mL^−1, 24 h at 37° C. in MHB; for times less active than PAR100 or PAR200 chains: from the MICs determined in solution. The protocol: PAR with 10, 30, 100 or 200 arginine residues per chain were tested. Each PAR was incubated 24 h at 37° C. in 300 μL of MHB medium with S. aureus (A620=0.001). Pathogen growth of 0% corresponds to medium with antibiotics (and without PAR) and 100% to medium without PAR. Each value corresponds to the mean value of 3 individual experiments (3 samples per experiment and condition) and error bars correspond to standard deviations. For each concentration, the first column represents the normalized pathogen growth of S. aureus for PAR10, the 2nd column for PAR30, the third column for PAR100 and the fourth for PAR200.
In the following the inventors of the present invention wanted to further elucidate the underlying mechanism that confer to the coatings of the invention the strong inhibitory property on the surface and in the supernatant. As an example the (PAR30/HA)24 coating was further investigated. Accordingly, the minimal inhibitory concentration (MIC) of PAR in solution was determined using bacterial assay as described in Experimental Section. […] Finally for PAR at concentrations of 0.01 mg·mL^−1, inhibition of 100% was shown only for PAR30. Longer or shorter PAR chains (PAR10, PAR100 or PAR200) inhibits only partially (less than 40%) S. aureus growth. […] This reasoning is valid when PAR concentration values are expressed in mass (mg·mL^−1) thus it is related to the number of arginine monomers. However when the graph is plotted with concentrations in μM (and thus proportional in number of chains), which means that concentration is related to number of chains, different interpretation can be made. […] Moreover the MIC100 values obtained for PAR30, PAR100 or PAR200 ranges at very low concentrations (between 1 and 2 μM) which is remarkable when compared to well-known antimicrobial peptides (for example 30 μM for cateslytin with S. aureus, see Adv. Funct. Mater. 2013, 23, 4801-4809). PAR is thus a powerful candidate to fight against S. aureus.

Assay [2] relates to S. aureus. The note with it: with S. aureus; Adv. Funct. Mater. 2013, 23, 4801-4809; cited from earlier work.

With poly-L-arginine [PAR100], in the assay on S. aureus [1], the “inhibition of bacterial growth by PAR in solution (in words)” value is on record as “totally inhibit” and the “inhibition of S. aureus growth by PAR in solution (in words)” value was “totally inhibited”.

With poly-L-arginine [PAR10], the “concentration needed to totally inhibit bacterial growth in solution” value in the assay on S. aureus [1] (S. aureus, PAR in solution) is recorded as “about 10 μM”. In addition, in the assay with S. aureus [1], the “inhibition of S. aureus growth by PAR in solution (in words)” value is “totally inhibited” and the “times less active than PAR100 or PAR200 chains” value was 10 times.

In the case of cateslytin, in the assay on S. aureus [2], the “MIC of a known antimicrobial peptide” value was 30 µM.

poly-L-arginine [PAR200]: the “inhibition of S. aureus growth by PAR in solution” value in the assay on S. aureus [1] (0.02 mg·mL^−1, 24 h at 37° C. in MHB) is “about 45%”. In the assay on S. aureus [1], the “inhibition of bacterial growth by PAR in solution (in words)” value is on record as “totally inhibit” and the “inhibition of S. aureus growth by PAR in solution (in words)” value was “totally inhibited”.

In the case of poly-L-arginine [PAR30], the “inhibition of S. aureus growth by PAR in solution” value in the assay on S. aureus [1] (0.01 mg·mL^−1, 24 h at 37° C. in MHB) is given as 100%. Further, in the assay on S. aureus [1] (S. aureus, PAR in solution), the MIC90 entry is listed as “about 2 μM” and the “concentration needed to totally inhibit bacterial growth in solution” value is recorded as “about 10 μM”. Also, in the assay on S. aureus [1], the “inhibition of S. aureus growth by PAR in solution (in words)” value is “totally inhibited” and the “times less active than PAR100 or PAR200 chains” value amounted to 2 times.
